Measured values from US20130202698A1 (NANJING SANHOME PHARMACEUTICAL CO., LTD., priority 2005, published 2013).
Like-named read-outs stand apart in the source and are kept apart here. Marks after values point to notes of the source that are not given here.

How the values were obtained:
[1] = Phase II clinical trial, oral tablets, departments of obstetrics/gynecology, adverse events; format: in vivo, human; conditions: human phase II, oral, obstetrics/gynecology
Description: (§1) Double-blinded randomized controlled trials were carried out to compare the adverse events of oral levo-ornidazole with racemate treatment groups. Two separate studies were conducted for patients with infections from either department of stomatology or obstetrics/gynecology.

[2] = Acute toxicity in mice (LD50); conditions: mouse, in vivo
[3] = system: motor balance and coordination; assay: Motor balance and coordination, modified beam walking method; conditions: mice, n=10
Description: Motor balance and coordination were tested using a modified beam walking method. Mice were put on a smooth beam tilted at an angle of 70 degree. Mice passed the test by standing on the beam for 0.5 minute without falling off. All the mice were pre-screened before the studies, and a total of 110 mice were selected by passing the beam test in 3 consecutive tries. The selected mice were divided into 11 groups with 10 mice in each group (half male and half female). At certain time points after drug administration, mice were tested on the beam for 3 consecutive times. A mouse was counted as failing to the test if it fell off the beam for 2 or more times.
The dose volume was 0.2 mL/10 gram and infusion rate was 0.2 mL/10 seconds. Chlorpromazine was used as the positive control.

[4] = Phase II clinical trial, oral tablets, departments of stomatology, adverse events; format: in vivo, human; conditions: human phase II, oral, stomatology
Description: as §1

[5] = system: thiosemicarbazide-induced convulsion; assay: Anticonvulsant effects on thiosemicarbazide-induced convulsion in mice; format: in vivo; conditions: n=10; for Convulsion Latency / Time to Death: Mean ± SD
Description: (§2) Mice are randomized into 4 treatment groups (n=10 with half male and half female): dextro- or levo-ornidazole (dosage 40, 80, 160 mg/kg), vehicle control group (15% propylene glycol in 0.9% sodium chloride, 20 mL/kg) and the positive control group. Animals are treated with known convulsion-inducing agents, followed by the drug or vehicle control given intravenously. The dose volume is 20 mL/kg with an infusion rate of 0.2 mL/10 seconds. The anticonvulsant effects are observed and recorded (see Tables 2-6).

[6] = system: spontaneous activities of mice; conditions: both, mouse, in vivo, iv
[7] = system: Strychnine-induced convulsion; assay: Anticonvulsant effects on Strychnine-induced convulsion in mice; format: in vivo; conditions: n=10; for Convulsion Latency: Mean ± SD
Description: as §2

[8] = rat, in vivo
[9] = system: isoniazid-induced convulsion; assay: Anticonvulsant effects on isoniazid-induced convulsion in mice; format: in vivo; conditions: Mean ± SD, n=10
Description: as §2

## Cc1ncc([N+](=O)[O-])n1CC(O)CCl (racemic) [Racemic ornidazole, 1-(3-Chloro-2-hydroxypropyl)-2-methyl-5-nitroimidazole]
[1]
  Abdominal pain, # of Patients with AE: 1
  Abdominal pain, Incidence (%): 0.70%
  Appetite drop, # of Patients with AE: 2
  Appetite drop, Incidence (%): 1.41%
  Bitter taste, # of Patients with AE: 1
  Bitter taste, Incidence (%): 0.70%
  Bloating, # of Patients with AE: 3
  Bloating, Incidence (%): 2.11%
  Blurred vision, # of Patients with AE: 1
  Blurred vision, Incidence (%): 0.70%
  Breast tenderness, # of Patients with AE: 1
  Breast tenderness, Incidence (%): 0.70%
  Chest tightness, # of Patients with AE: 2
  Chest tightness, Incidence (%): 1.41%
  Dazzle, # of Patients with AE: 1
  Dazzle, Incidence (%): 0.70%
  Diarrhea, # of Patients with AE: 1
  Diarrhea, Incidence (%): 0.70%
  Dizziness, # of Patients with AE: 4
  Dizziness, Incidence (%): 2.82%
  Dry mouth, # of Patients with AE: 1
  Dry mouth, Incidence (%): 0.70%
  Headache, # of Patients with AE: 1
  Headache, Incidence (%): 0.70%
  Hypersomnia, # of Patients with AE: 8
  Hypersomnia, Incidence (%): 5.63%
  Hypodynamia, # of Patients with AE: 2
  Hypodynamia, Incidence (%): 1.41%
  Nausea, # of Patients with AE: 7
  Nausea, Incidence (%): 4.93%
  Oral malodor, # of Patients with AE: 0
  Oral malodor, Incidence (%): 0.00%
  Rash, # of Patients with AE: 0
  Rash, Incidence (%): 0.00%
  Stomach ache, # of Patients with AE: 0
  Stomach ache, Incidence (%): 0.00%
  Stomach discomfort, # of Patients with AE: 4
  Stomach discomfort, Incidence (%): 2.82%
  Total incidence rate of adverse events: 19.72%
  Vertigo, # of Patients with AE: 8
  Vertigo, Incidence (%): 5.63%
  Vomiting, # of Patients with AE: 1
  Vomiting, Incidence (%): 0.70%
[1]; out of 143 (levo) / 142 (racemate) patients
  Patients with adverse events (total): 28 patients
[2]; intravenous injection
  LD50: 306 mg/kg
[2]; ip, intraperitoneal injection
  LD50: 1120 mg/kg
[2]; oral gavage
  LD50: 769 mg/kg
[3]; 40 mg/kg, 0.5 hours post-dose
  Number of Animals Fall Off: 1
[3]; 40 mg/kg, 1 hours post-dose
  Number of Animals Fall Off: 0
[3]; 40 mg/kg, 2 hours post-dose
  Number of Animals Fall Off: 0
[3]; 40 mg/kg, 3 hours post-dose
  Number of Animals Fall Off: 0
[3]; 40 mg/kg, 4 hours post-dose
  Number of Animals Fall Off: 0
[3]; 80 mg/kg, 0.5 hours post-dose
  Number of Animals Fall Off: 0
[3]; 80 mg/kg, 1 hours post-dose
  Number of Animals Fall Off: 0
[3]; 80 mg/kg, 2 hours post-dose
  Number of Animals Fall Off: 2
[3]; 80 mg/kg, 3 hours post-dose
  Number of Animals Fall Off: 0
[3]; 80 mg/kg, 4 hours post-dose
  Number of Animals Fall Off: 0
[3]; 160 mg/kg, 0.5 hours post-dose
  Number of Animals Fall Off: 10##
[3]; 160 mg/kg, 1 hours post-dose
  Number of Animals Fall Off: 8##
[3]; 160 mg/kg, 2 hours post-dose
  Number of Animals Fall Off: 6
[3]; 160 mg/kg, 3 hours post-dose
  Number of Animals Fall Off: 4
[3]; 160 mg/kg, 4 hours post-dose
  Number of Animals Fall Off: 3
[4]
  Bloating, # of Patients with AE: 1
  Bloating, Incidence (%): 0.71%
  Constipation, # of Patients with AE: 0
  Constipation, Incidence (%): 0.00%
  Drowsy, # of Patients with AE: 3
  Drowsy, Incidence (%): 2.13%
  Dry mouth, # of Patients with AE: 1
  Dry mouth, Incidence (%): 0.71%
  Headache, # of Patients with AE: 1
  Headache, Incidence (%): 0.71%
  Hypersomnia, # of Patients with AE: 6
  Hypersomnia, Incidence (%): 4.26%
  Hypodynamia, # of Patients with AE: 1
  Hypodynamia, Incidence (%): 0.71%
  Loss of appetite, # of Patients with AE: 1
  Loss of appetite, Incidence (%): 0.71%
  Nausea, # of Patients with AE: 4
  Nausea, Incidence (%): 2.84%
  Palpitation, # of Patients with AE: 1
  Palpitation, Incidence (%): 0.71%
  Pruritus, # of Patients with AE: 1
  Pruritus, Incidence (%): 0.71%
  Rash, # of Patients with AE: 2
  Rash, Incidence (%): 1.42%
  Sourregurgitation, # of Patients with AE: 1
  Sourregurgitation, Incidence (%): 0.71%
  Stomach discomfort, # of Patients with AE: 7
  Stomach discomfort, Incidence (%): 4.96%
  Stupor, # of Patients with AE: 1
  Stupor, Incidence (%): 0.71%
  Total incidence rate of adverse events: 17.73%
  Vertigo, # of Patients with AE: 2
  Vertigo, Incidence (%): 1.42%
  Vomiting, # of Patients with AE: 1
  Vomiting, Incidence (%): 0.71%
[4]; out of 139 (levo) / 141 (racemate) patients
  Patients with adverse events (total): 25 patients

## Cc1ncc([N+](=O)[O-])n1C[C@@H](O)CCl [D-ornidazole, R-(+)-ornidazole]
[5]; 40 mg/kg i.v.
  Convulsion Latency: 94.3 ± 25.1 min
  Time to Death: 153.9 ± 43.7 min
[5]; 80 mg/kg i.v.
  Convulsion Latency: 121.8 ± 16.8 min
  Time to Death: 213.6 ± 56.5 min
[5]; 160 mg/kg i.v.
  Mortality Rate: 2/10**
  Rate of Convulsion: 3/10**
[6]; 40 mg/kg, 0.5 h
  Spontaneous Activities (per 5 min): 52 ± 23 per 5 min
[6]; 40 mg/kg, 1 h
  Spontaneous Activities (per 5 min): 44 ± 19 per 5 min
[6]; 40 mg/kg, 2 h
  Spontaneous Activities (per 5 min): 35 ± 20 per 5 min
[6]; 40 mg/kg, 3 h
  Spontaneous Activities (per 5 min): 47 ± 33 per 5 min
[6]; 40 mg/kg, 4 h
  Spontaneous Activities (per 5 min): 62 ± 31 per 5 min
[6]; 80 mg/kg, 0.5 h
  Spontaneous Activities (per 5 min): 25 ± 15 per 5 min
[6]; 80 mg/kg, 1 h
  Spontaneous Activities (per 5 min): 16 ± 21 per 5 min
[6]; 80 mg/kg, 2 h
  Spontaneous Activities (per 5 min): 17 ± 15 per 5 min
[6]; 80 mg/kg, 3 h
  Spontaneous Activities (per 5 min): 27 ± 17 per 5 min
[6]; 80 mg/kg, 4 h
  Spontaneous Activities (per 5 min): 34 ± 17 per 5 min
[6]; 160 mg/kg, 0.5 h
  Spontaneous Activities (per 5 min): 0 ± 0 per 5 min
[6]; 160 mg/kg, 1 h
  Spontaneous Activities (per 5 min): 0 ± 0 per 5 min
[6]; 160 mg/kg, 2 h
  Spontaneous Activities (per 5 min): 0 ± 0 per 5 min
[6]; 160 mg/kg, 3 h
  Spontaneous Activities (per 5 min): 3 ± 3 per 5 min
[6]; 160 mg/kg, 4 h
  Spontaneous Activities (per 5 min): 5 ± 5 per 5 min
[7]; 40 mg/kg i.v.
  Convulsion Latency: 6.0 ± 0.7 min
  Mortality Rate: 10/10
[7]; 80 mg/kg i.v.
  Convulsion Latency: 8.0 ± 2.0 min
  Mortality Rate: 7/10
[7]; 160 mg/kg i.v.
  Convulsion Latency: 9.1 ± 2.6 min
  Mortality Rate: 1/10**
[8]
  Distribution in different region of brain, levo- vs dextro-ornidazole: Similar
[9]; 40 mg/kg i.v.
  Convulsion Latency: 43.2 ± 5.4 min
  Time to Death: 53.6 ± 7.2 min
[9]; 80 mg/kg i.v.
  Convulsion Latency: 46.1 ± 2.2 min
  Time to Death: 57.0 ± 7.3 min
[9]; 160 mg/kg i.v.
  Convulsion Latency: 48.3 ± 14.1 min
  Time to Death: 81.5 ± 15.8 min
